The text below walks through data of ChEMBL document CHEMBL4699634, “Series of Novel and Highly Potent Cyclic Peptide PCSK9 Inhibitors Derived from an mRNA Display Screen and Optimized via Structure-Based Design” (J Med Chem, 2020).

One data set concerns the target PCSK9/LDLR (Homo sapiens, UniProt Q8NBP7). Put plainly: Inhibition of avi-tagged-biotinylated human PCSK9 interaction with His-tagged human LDLR EGFa domain by LANCE Ulight Streptavidin based TR-FRET assay. It is filed as protein assay.
Data set [1] in a line: AUC (0 to infinity) in C57BL/6 mouse at 1 mg/kg, iv by LC-MS/MS analysis. It is filed as ADME, organism-based. Details: route intravenous, time infinity, dose 1 mg/kg. Particulars: C57BL/6, mouse, in vivo.
A short description of data set [2]: AUC (0 to X) in C57BL/6 mouse at 1 mg/kg, iv by LC-MS/MS analysis. Details: dose 1 mg/kg. Particulars: in vivo. It is filed as ADME, organism-based.
Data set [3] is described as follows: Clearance in C57BL/6 mouse at 1 mg/kg, iv by LC-MS/MS analysis. Format: ADME, organism-based. To be noted: in vivo.
The nature of data set [4]: Volume of distribution at steady state in C57BL/6 mouse at 1 mg/kg, iv by LC-MS/MS analysis. It is filed as ADME, organism-based. Particulars: in vivo, read-out: Vdss.
Data set [5] can be described thus: Half life in C57BL/6 mouse at 1 mg/kg, iv by LC-MS/MS analysis. Format: ADME, organism-based. To be noted: in vivo.
The nature of data set [6]: Protein binding in mouse plasma at 2.5 uM measured after 4 hrs by equilibrium dialysis based LC-MS/MS analysis. It is filed as ADME, cell-free. To be noted: read-out: PPB (converted).
The next data set has as its target Chymotrypsinogen A (Bos taurus, UniProt P00766). Put plainly: Enzymatic stability assessed as bovine pancreatic alpha-chymotrypsin-mediated compound hydrolysis by measuring parent compound remaining at 100 uM incubated for 1 hr by LC-MS/MS analysis. To be noted: cattle, read-out: Stabilty. Format: ADME.
The target in data set [7] is Chymotrypsin-like elastase family member 1 (Sus scrofa, UniProt P00772). Put plainly: Enzymatic stability assessed as porcine type 4 pancreatic elastase-mediated compound hydrolysis by measuring parent compound remaining at 100 uM incubated for 1 hr by LC-MS/MS analysis. Format: ADME. Particulars: pig, read-out: Stabilty.
Data set [8] in a line: Enzymatic stability assessed as porcine pepsin-mediated compound hydrolysis by measuring parent compound remaining at 100 uM incubated for 1 hr by LC-MS/MS analysis. Format: ADME, Sus scrofa. To be noted: pig, read-out: Stabilty.
Data set [9] can be described thus: Enzymatic stability assessed as bovine pancreatic trypsin-mediated compound hydrolysis by measuring parent compound remaining at 100 uM incubated for 1 hr by LC-MS/MS analysis. It is filed as ADME, Bos taurus. Particulars: cattle, read-out: Stabilty.
Data set [10] is described as follows: Half life in C57BL/6 mouse whole blood at 100 uM by LC-MS/MS analysis. Format: ADME, tissue-based.
Data set [11] can be described thus: Half life in cynomolgus monkey whole blood at 100 uM by LC-MS/MS analysis. Format: ADME, tissue-based, Macaca fascicularis.
Data set [12] deals with Proprotein convertase subtilisin/kexin type 9 (Homo sapiens, UniProt Q8NBP7). Put plainly: Inhibition of AlexaFluor647-tagged cyclic peptide binding to avi-tagged-biotinylated human PCSK9 measured after 2 hrs by Lance Streptavidin Europium based FRET assay.
A short description of data set [13]: Induction of mast cell degranulation in Wistar rat isolated peritoneal cells assessed as effect on histamine release measured after 30 mins. It is filed as tissue-based. Particulars: Rattus norvegicus, Wistar, Mast cell, 0.5 h; read-out: EC50.
The nature of data set [14]: Cytotoxicity against Wistar rat isolated peritoneal cells assessed as reduction in cell viability up to 60 uM measured after 30 mins. It is filed as cell-based. To be noted: peritoneal macrophage cell, 0.5 h.

Sequence of Chymotrypsin-like elastase family member 1 (P00772 whole entry): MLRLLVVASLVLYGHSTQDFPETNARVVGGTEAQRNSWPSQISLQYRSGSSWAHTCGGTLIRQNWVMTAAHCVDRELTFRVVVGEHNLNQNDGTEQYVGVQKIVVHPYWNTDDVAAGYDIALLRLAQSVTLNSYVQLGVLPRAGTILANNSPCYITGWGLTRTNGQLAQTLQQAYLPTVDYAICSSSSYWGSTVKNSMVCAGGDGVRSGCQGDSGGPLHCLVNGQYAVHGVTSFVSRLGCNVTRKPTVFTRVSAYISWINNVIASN
Sequence of PCSK9/LDLR (Q8NBP7 31-152 limits assumed): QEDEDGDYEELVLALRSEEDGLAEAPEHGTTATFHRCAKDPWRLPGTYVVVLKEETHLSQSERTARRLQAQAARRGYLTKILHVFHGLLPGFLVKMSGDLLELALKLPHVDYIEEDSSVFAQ
Sequence of PCSK9/LDLR (Q8NBP7 153-692 limits assumed): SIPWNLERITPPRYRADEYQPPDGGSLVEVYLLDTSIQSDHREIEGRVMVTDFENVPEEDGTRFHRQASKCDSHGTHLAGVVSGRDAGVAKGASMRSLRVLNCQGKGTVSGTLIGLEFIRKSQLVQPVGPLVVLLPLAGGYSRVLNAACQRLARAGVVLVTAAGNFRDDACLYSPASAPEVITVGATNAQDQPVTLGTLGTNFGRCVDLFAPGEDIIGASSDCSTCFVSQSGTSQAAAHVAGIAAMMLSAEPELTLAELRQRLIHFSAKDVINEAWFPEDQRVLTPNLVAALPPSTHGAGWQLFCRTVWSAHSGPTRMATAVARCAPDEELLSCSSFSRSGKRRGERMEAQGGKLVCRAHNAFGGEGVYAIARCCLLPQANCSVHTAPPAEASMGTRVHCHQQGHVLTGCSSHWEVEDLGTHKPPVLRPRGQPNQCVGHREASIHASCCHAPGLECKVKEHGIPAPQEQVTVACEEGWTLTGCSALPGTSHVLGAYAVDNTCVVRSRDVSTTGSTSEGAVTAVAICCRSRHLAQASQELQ
Sequence of PCSK9/LDLR (P01130 22-860 partner limits assumed): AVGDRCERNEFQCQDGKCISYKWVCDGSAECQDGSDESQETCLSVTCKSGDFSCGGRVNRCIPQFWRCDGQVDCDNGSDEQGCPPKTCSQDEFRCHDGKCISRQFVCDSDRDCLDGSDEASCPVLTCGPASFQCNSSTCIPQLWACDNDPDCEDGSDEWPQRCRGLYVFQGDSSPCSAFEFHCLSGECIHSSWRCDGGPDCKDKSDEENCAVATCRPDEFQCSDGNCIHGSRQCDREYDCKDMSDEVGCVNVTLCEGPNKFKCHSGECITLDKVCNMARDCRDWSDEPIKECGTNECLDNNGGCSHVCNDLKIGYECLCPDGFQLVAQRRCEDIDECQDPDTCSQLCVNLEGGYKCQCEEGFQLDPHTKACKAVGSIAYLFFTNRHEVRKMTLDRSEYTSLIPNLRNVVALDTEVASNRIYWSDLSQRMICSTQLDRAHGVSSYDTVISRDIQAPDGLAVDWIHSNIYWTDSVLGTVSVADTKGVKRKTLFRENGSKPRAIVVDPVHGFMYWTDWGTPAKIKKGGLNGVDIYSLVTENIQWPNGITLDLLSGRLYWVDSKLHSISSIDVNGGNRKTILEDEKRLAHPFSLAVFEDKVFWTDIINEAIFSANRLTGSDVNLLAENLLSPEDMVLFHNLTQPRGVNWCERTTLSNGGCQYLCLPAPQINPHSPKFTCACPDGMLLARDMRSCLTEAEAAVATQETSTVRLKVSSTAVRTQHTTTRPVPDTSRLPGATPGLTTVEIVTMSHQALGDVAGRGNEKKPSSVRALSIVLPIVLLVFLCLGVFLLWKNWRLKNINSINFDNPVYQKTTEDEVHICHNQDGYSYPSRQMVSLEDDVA
Sequence of Proprotein convertase subtilisin/kexin type 9 (Q8NBP7 31-152 limits assumed): as the sequence (Q8NBP7 31-152 limits assumed) above
Sequence of Proprotein convertase subtilisin/kexin type 9 (Q8NBP7 153-692 limits assumed): as the sequence (Q8NBP7 153-692 limits assumed) above

For `C[C@H]1NC(=O)[C@H](CCCCN)NC(=O)CCSCc2cccc(c2)CSCCNC(=O)[C@]2(C)CCCN2C(=O)[C@H](Cc2ccc(O)cc2)NC(=O)[C@H](Cc2cnc[nH]2)NC(=O)[C@H](CC(=O)O)NC(=O)[C@H](Cc2c[nH]c3ccc(F)cc23)NC(=O)[C@H](Cc2c[nH]c3ccc(F)cc23)NC1=O`, the inhibition constant Ki at PCSK9/LDLR turned out to be 23.3 nM; in data set [12], 4.2 nM. The compound also showed an area under the curve AUC(0-inf) in data set [1] of 0.492 µM·h. The compound further returned an AUC in [2] of 0.491 µM·h. This compound also displayed a clearance in [3] of 24.2 mL/min/kg. The Vd in data set [4] stood at 0.29 L/kg. In data set [5], this compound gave a half-life of 0.78 h. Besides, the fraction unbound at 4 h, 2.5 µM in data set [6] was 0.0077. In addition, the remaining at 1 h, 100 µM at Chymotrypsinogen A came to 42.7%; in data set [7], 99.1%; in data set [8], 93.7%; in data set [9], 79.5%. In addition, the half-life at 100 µM in data set [10] was 3.1 h; in [11] it was over 6 h.
For the compound `NCCCC[C@@H]1NC(=O)CCSCc2cccc(c2)CSC[C@@H](C(N)=O)NC(=O)[C@@H]2CCCN2C(=O)[C@H](Cc2ccc(O)cc2)NC(=O)[C@H](Cc2c[nH]cn2)NC(=O)[C@H](CC(=O)O)NC(=O)[C@H](Cc2c[nH]c3ccc(F)cc23)NC(=O)[C@H](Cc2c[nH]c3ccc(F)cc23)NC(=O)CNC1=O`, at PCSK9/LDLR, the Ki is 110 nM. The compound also had an AUC(0-inf) in data set [1] of 0.242 µM·h. For the same compound, in data set [2], the AUC was 0.241 µM·h. Also, the clearance in data set [3] worked out at 51.7 mL/min/kg. In addition, the Vd in data set [4] came to 0.7 L/kg. Also, the half-life in [5] was 1.04 h. Further, in data set [6], the fraction unbound at 4 h, 2.5 µM was 0.0498. Also, the remaining at 1 h, 100 µM stood at 12% on Chymotrypsinogen A, 60.7% in [7], 95% in data set [8] and 1.2% in data set [9]. The compound also returned a half-life at 100 µM in data set [10] of 1.05 h. Moreover, the EC50 in [13] turned out to be 6670 nM. In [14], the Activity entry is recorded as “Non-Toxic”.
In the case of `CC(C)[C@H]1NC(=O)[C@H](CCCCN)NC(=O)CCSCc2cccc(c2)CSCCNC(=O)[C@]2(C)CCCN2C(=O)[C@H](Cc2ccc(O)cc2)NC(=O)[C@H](Cc2cnc[nH]2)NC(=O)[C@H](CC(=O)O)NC(=O)[C@H](Cc2c[nH]c3ccc(F)cc23)NC(=O)[C@H](Cc2c[nH]c3ccc(F)cc23)NC1=O`, the Ki at PCSK9/LDLR is 17.6 nM; in data set [12], 6.3 nM. Moreover, in data set [1], the AUC(0-inf) was 2.51 µM·h. In addition, in data set [2], the AUC was found to be 2.49 µM·h. The compound also came in with a clearance in [3] of 4.62 mL/min/kg. Moreover, the Vd in [4] was 0.1 L/kg. In data set [5], this compound showed a half-life of 0.25 h. In addition, the fraction unbound at 4 h, 2.5 µM in data set [6] is 0.001. For the same compound, the remaining at 1 h, 100 µM was determined as 76.4% at Chymotrypsinogen A, 100% in [7], 100% in data set [8] and 94.3% in data set [9]. This compound also yielded a half-life at 100 µM in [10] of over 6 h.
The compound `COc1ccc(C[C@@H]2NC(=O)[C@H]([C@@H](C)O)NC(=O)[C@@H]3CCC(=O)NCc4cccc(c4)C[C@H](NC(=O)[C@@H](C)NC(=O)[C@H](C)NC(=O)CCSCc4cccc(c4)CSCCNC(=O)[C@]4(C)CCCN4C2=O)C(=O)N[C@@H](Cc2c[nH]c4ccc(F)cc24)C(=O)N3)cc1` came in with an AUC(0-inf) in data set [1] of 0.841 µM·h. The compound further showed an AUC in [2] of 0.84 µM·h. Further, in data set [3], the clearance came to 16 mL/min/kg. Further, the Vd in [4] is 0.23 L/kg. Also, the half-life in [5] was 0.66 h. In data set [6], the fraction unbound at 4 h, 2.5 µM was 0.015. The remaining at 1 h, 100 µM on Chymotrypsinogen A is 2.5%; in [7], 100%; in data set [8], 98.2%; in data set [9], 100%. Moreover, the figures for the half-life at 100 µM in data set [10] and in data set [11] were over 6 h and 1.88 h, respectively. In data set [12], this compound showed an inhibitory constant (Ki) of 1.5 nM.
